Legend:
[1] = system: Smo; assay: Bodipy-cyclopamine competition assay in Cos 7 cells expressing Smo; type: binding; conditions: cells over-expressing Smo, 5 nM Bodipy-cyclopamine
Method: Cos 7 cells were transfected with a plasmid co-expressing Smo and a nuclear localized form of tagRFPT (pCIT-Smo). An empty parental construct (pCIT), and a construct that co-expresses SmoM2, were used as controls to assess specificity and background noise. Three days after transfection, cells were incubated with 5 nM Bodipy-cyclopamine, with or without other compounds for 1 hour at 37 °C. Cells were washed, fixed and stained with Hoechst. Images were collected by an Opera High Content Screen System. Bodipy fluorescence was quantified specifically for transfected cells (determined by red tagRFPT+ nucleus) using a program developed by the authors with Acapella 2.0 software. All of the images were scanned with identical microscopic settings and analyzed with the same input parameters.
Cos 7 cells were transfected with a plasmid that co-expresses Smo and a nuclear localized tagRFPT marker (pCIT-Smo). The empty parental construct (pCIT) and a construct that co-express SmoM2 were used as controls to assess specificity and background signal. Three days after transfection, cells were incubated with 5 nM Bodipy-cyclopamine, with or without additional compounds, for 1 hour at 37° C. Cells were then fixed and stained with Hoechst. Images were collected with the Opera High Content Screen System. Fluorescence values were assessed in transfected cells (red nuclei) with a program developed by the authors using Acapella 2.0 software. All of images were scanned with identical microscopic setting and analyzed with the same input parameters.

[2] = target: T1, Smo::EGFP (Homo sapiens, UniProt Q99835); assay: FA promoted accumulation of Smo in the PC, inhibition by Smo antagonists; type: cell-based; conditions: FA-induced
T1 construct: expressed in transfected cells
Method: (§1) Cells were cultured and treated in 384-well imaging plate precoated with poly-D-Lysine (Greiner Bio-one), fixed with 4% paraformaldehyde (Electron Microscopy Sciences), and stained with Hoechst (Invitrogen). Images were collected using Opera High Content Screening System (Perkin Elmer). ActivityBase (IDBS), Pipeline Pilot (Accelrys), Excel (Microsoft), and Prism (GraphPad) were used for high content screening data management and analysis. Acapella 2.0 software (Evotec Technologies/PerkinElmer) was used to perform multi-parametric image quantification. All the comparative images were scanned with identical microscopic setting and analyzed with the same input parameters.

[3] = target: T1, Smo::EGFP; assay: Cyc-induced Smo ciliary accumulation (Smo::EGFP/Ivs::tagRFPT cells); type: cell-based; conditions: 5 μM Cyc
Method: as §1, with “Activityl)ase (IDBS Inc, Emeryvill, Calif.) and” for “ActivityBase (IDBS),”, “(Accelrys, Inc. San Diego, Calif.)” for “(Accelrys), Excel (Microsoft), and Prism (GraphPad)”, “multi-parametrical high content” for “multi-parametric”, “the” for “the comparative”, “images for comparison” for “images”, “settings” for “setting”
(§2) Acapella 2.0 software (Evotec Technologies/PerkinElmer) was used to perform multi-parametric high content image quantification. Our image analysis script used Ivs::tagREPT to first determine the location of the PC and then Smo::EGFP to quantify the level of Smo present in the cilium.

[4] = target: T2, SmoM2::GFP (Homo sapiens, UniProt Q99835, W535L); assay: Ciliary localization of SmoM2::GFP (3T3/SmoM2::GFP Overexpression/Ivs::tagRFPT); type: cell-based; conditions: SmoM2::EGFP overexpressing cells
T2 construct: expressed in transfected cells
From the text: (§3) NIH/3T3 cells were maintained in DMEM containing 10% (v/v) calf serum, penicillin, streptomycin, and L-glutamine. HEK293, L, cos 7, and suFU−/− mouse embryonic fibroblast cells were maintained in DMEM containing 10% (v/v) fetal bovine serum, penicillin, streptomycin, and L-glutamine. Smo::EGFP, SmoM2::GFP, and Ivs::tagRFPT were cloned into pBabe to generate retroviral particles for infection. Smo::EGFP/Ivs::tagRFPT and SmoM2::GFP/Ivs::tagRFPT stable cell lines were generated through viral infection of NIH/3T3^12. A ShhLightII Gli reporter cell line was obtained from the American Type Culture Collection (ATCC) and used in luciferase reporter assays to measure Hh pathway activity. The cell line contains a stably integrated Gli-responsive Firefly luciferase reporter and a constitutive Renilla luciferase expression construct^33. Subclones expressing Smo or SmoM2 in ShhLightII cells were used for chemical epistasis analyses.
as §1, with “Activityl)ase (IDBS Inc, Emeryvill, Calif.) and” for “ActivityBase (IDBS),”, “(Accelrys, Inc. San Diego, Calif.)” for “(Accelrys), Excel (Microsoft), and Prism (GraphPad)”, “multi-parametrical high content” for “multi-parametric”, “the” for “the comparative”, “images for comparison” for “images”, “settings” for “setting”
as §2

[5] = system: Hh pathway activity; assay: Gli-luciferase reporter assay, Shh-induced Hh pathway activity (ShhLightII cells); type: cell-based; conditions: Gli-luciferase induction and Smo ciliary localization; 10 μM FA
From the text: as §3
(§4) Hh activity assays were performed using ShhLightll cells, Smo/Lightll cells, SmoM2/Lightll cells, and suFU−/− mouse embryonic fibroblasts. In the suFU−/− cells, Hh activity was measured after co-transfection with Gli driven firefly luciferase and TK-renilla luciferase reporters^41. Wnt activity was measured in 293 cells co-transfected with Top-flash and TK-renilla luciferase reporters^42. Cells were cultured and treated in 96 well assay plates (Corning) and incubated with Duo-Glo luciferase substrates (Promega) to measure firefly and renilla luciferase activity sequentially using a Top Count NX Microplate Scintillation and Luminescence Counter (Perkin Elmer). The renilla luciferase signal was used to normalize the firefly reporter activity.
(§5) ShhLightII cells and SmoM2/LightII cells were cultured and treated in 96 well assay plates (Corning) and incubated with Duo-Glo luciferase substrates (Promega) to sequentially measure firefly and renilla luciferase activity. Smo, or GFP, expression plasmids were co-transfected into 3T3 cells together with a Gli-responsive firefly reporter and a TK-renilla luciferase reporter contruct to monitor effects of Smo overexpression. Co-transfection of the two reporter constructs was conducted in assays measuring Hh pathway activity in suFU−/− cells. Wnt activity was measured following co-transfection of a Top-flash and renilla luciferase reporter. In both Hh and Wnt activity assays, renilla luciferase reporter activity, or mass of protein, was used to normalize expression values. Luciferase signal was read by TopCount NX Microplate Scintillation and Luminescence Counter (Perkin Elmer). Quantitative PCR probes for Ptch1, Gli1, and β-actin were purchased from Applied Biosystems. Reactions and measurements were performed using on an Applied Biosystems 7900HT at Harvard FAS Center of System Biology. β-actin was used to normalize Ptch1 and Gil1 values.

[6] = system: SmoM2; assay: Gli-luciferase reporter induced by SmoM2::GFP overexpression (SmoM2/LightII cells); type: cell-based; conditions: SmoM2 versus wild-type Smo
From the text: as §3, §4, §5

[7] = system: Hh pathway activity; assay: Gli-luciferase reporter assay, Hh pathway activation by compound alone (NIH/3T3 cells); type: cell-based; conditions: FA at high concentrations
Method: as §5

[8] = target: T1, Smo::EGFP; assay: High content assay of Shh-induced Smo::EGFP accumulation in the primary cilium (Smo::EGFP/Ivs::tagRFPT NIH/3T3 cells); type: cell-based; conditions: in the presence of Shh
From the text: as §3
as §1, with “Activityl)ase (IDBS Inc, Emeryvill, Calif.) and” for “ActivityBase (IDBS),”, “(Accelrys, Inc. San Diego, Calif.)” for “(Accelrys), Excel (Microsoft), and Prism (GraphPad)”, “multi-parametrical high content” for “multi-parametric”, “the” for “the comparative”, “images for comparison” for “images”, “settings” for “setting”
as §2
The inventors used the spot-finding algorithm in the RFP channel to find Ivs-rich spots. Each non-overlapping spot was based on a maximum 8 pixel-radius (when using a 40× objective) around a central intensity peak of 5 pixels. A distance of at least 10 pixels was required between adjacent spot centers. Spot peaks had to exceed thresholds of relative intensity compared to the remaining body of the spot as well as to the entire image. The average, maximum and total RFP intensity of each spot were measured. The spots with sufficiently high absolute maxima to pass the selected threshold were classified as positive spots. To form candidate cilia, the inventors selected the brightest 15% of the pixels in each positive spot and merged those pixels into objects so that the brightest parts of adjacent spots could form single, larger cilia-shaped objects. To qualify the candidate cilia as true Ivs-positive cilia, the width of the objects created from merging the brightest pixels in each spot had to be at least 2 pixels and the length to half-width ratio had to exceed 3. (i.e. a 3-pixel long by 2-pixel wide cilium was the minimum accepted cilium size and the length had to be at least 1.5 fold of the width). The mean GFP intensity within these Ivs-positive cilia was used to estimate the ciliary level of Smo protein. The inventors subtracted the background of the mean GFP intensity in the 3-pixel wide area around each candidate cilium to avoid some false positives. Those Ivs-positive cilia that exceed the final mean GFP intensity threshold set for each experiment were deemed Smo-positive cilia.
Hoechst staining was used to determine the total number of nuclei per well.
Measurements of the geometry of the cilia as well as the total fluorescent intensities of each cilium in the Smo- and Ivs-channels were used to determine if any of the compounds were having unusual effects on cilia size, intensity or frequency of observation or combinations of all three characteristics.

[9] = human cancer patients, after a single high dose; cited from earlier work
[10] = system: Hh pathway activity; assay: Priming and withdrawal of compound followed by Shh stimulation, Gli-luciferase reporter (hypersensitivity); type: cell-based; conditions: priming 24 hours, washout, then Shh (or SAG) stimulation
Method: as §4
Following the removal of drug containing medium, and extensive washing, cells were stimulated with either Hh ligand, or the direct-binding Smo agonist SAG^17,18.
as §5

[11] = system: Hh pathway activation induced by loss of suFU; assay: Gli-luciferase assay in suFU−/− mouse embryonic fibroblasts; type: cell-based; conditions: suFU−/− cells
Method: as §4
ShhLightII cells and SmoM2/LightII cells were cultured and treated in 96 well assay plates (Corning) and incubated with Duo-Glo luciferase substrates (Promega) to sequentially measure firefly and renilla luciferase activity. […] Wnt activity was measured following co-transfection of a Top-flash and renilla luciferase reporter. […] Luciferase signal was read by TopCount NX Microplate Scintillation and Luminescence Counter (Perkin Elmer). Quantitative PCR probes for Ptch1, Gli1, and β-actin were purchased from Applied Biosystems. […]

T1 sequence (Q99835 28-787): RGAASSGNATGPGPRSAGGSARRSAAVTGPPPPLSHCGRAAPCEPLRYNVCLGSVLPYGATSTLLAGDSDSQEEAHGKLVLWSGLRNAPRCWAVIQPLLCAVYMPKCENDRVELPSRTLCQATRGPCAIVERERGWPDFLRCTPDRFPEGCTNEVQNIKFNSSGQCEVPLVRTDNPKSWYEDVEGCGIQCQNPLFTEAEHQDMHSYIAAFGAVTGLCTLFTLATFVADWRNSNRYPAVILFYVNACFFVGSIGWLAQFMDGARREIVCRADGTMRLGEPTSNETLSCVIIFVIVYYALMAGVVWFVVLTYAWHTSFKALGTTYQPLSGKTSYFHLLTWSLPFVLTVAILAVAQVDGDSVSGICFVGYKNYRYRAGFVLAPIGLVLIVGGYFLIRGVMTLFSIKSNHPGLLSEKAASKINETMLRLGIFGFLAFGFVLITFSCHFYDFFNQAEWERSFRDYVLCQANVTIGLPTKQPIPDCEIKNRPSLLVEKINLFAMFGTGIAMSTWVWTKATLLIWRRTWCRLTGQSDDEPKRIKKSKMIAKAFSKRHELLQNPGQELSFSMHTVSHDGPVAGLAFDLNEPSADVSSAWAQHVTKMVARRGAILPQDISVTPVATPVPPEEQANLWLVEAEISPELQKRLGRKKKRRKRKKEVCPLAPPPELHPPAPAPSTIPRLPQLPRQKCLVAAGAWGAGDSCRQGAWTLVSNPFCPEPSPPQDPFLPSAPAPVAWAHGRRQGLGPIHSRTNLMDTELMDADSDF
T2 sequence (Q99835 28-787 W535L): as the sequence (Q99835 28-787) above, with W508L counted along it

| SMILES | competition of Bodipy-Cyc binding to Smo [1] | effect on FA promoted accumulation of Smo in the PC [2] | effect on Cyc induced Smo cilial accumulation [3] | effect on SmoM2 ciliary localization [4] | Hh pathway inhibition by the antagonist in the presence of FA [5] | IC50's for SmoM2 relative to IC50's for wildtype Smo [6] | effect on FA induced activation of the Hh pathway [7] | inhibition of Shh-induced Smo::EGFP accumulation in the PC [8] | peak plasma concentration [9] [µM] | hypersensitivity to Hh pathway stimulation after priming with and removal of compound, Gli-luciferase [10] | effect on Hh pathway activation induced by loss of suFU [11] |
| --- | --- | --- | --- | --- | --- | --- | --- | --- | --- | --- | --- |
| Cc1nn(-c2ccccc2)c(C)c1/C=N/N1CCN(Cc2ccccc2)CC1 [SANT-1] | effective competitor | inhibit | effectively compete with Cyc | did not alter SmoM2 ciliary accumulation | dramatically reduced | at least an order of magnitude higher | blocked | specifically inhibited Smo::EGFP accumulation in the PC | – | – | – |
| C[C@@H]1C[C@H]2[C@@H]3CCC4=CC(=O)C=C[C@]4(C)[C@@]3(F)[C@@H](O)C[C@]2(C)[C@@]1(O)C(=O)CO [Dexamethasone] | – | – | – | – | – | – | – | – | > 10 | – | – |
| CS(=O)(=O)c1ccc(C(=O)Nc2ccc(Cl)c(-c3ccccn3)c2)c(Cl)c1 [GDC0449] | – | inhibit | effectively compete with Cyc | did not alter SmoM2 ciliary accumulation | dramatically reduced | at least an order of magnitude higher | – | specifically inhibited Smo::EGFP accumulation in the PC | – | no enhancing activity | does not alter |
